# Patent US6806359B1, “Hormone receptor compositions and methods” (The Salk Institute for Biological Studies, priority 1986, dated 2004)
# Entries after “also recorded” stand apart in the source; their conditions may differ.
# Assays:
# rTR alpha = target: T1, rTR alpha (Rattus norvegicus, UniProt P63059); assay: ^125I-T3 binding to in vitro translated rTR alpha (Scatchard and competition); conditions: for competition for T3 binding to rTR alpha by excess compound: excess competitor
# T1 construct: made in house; host or cells: rabbit reticulocyte lysate (SP6 transcripts of rbeA12B)
# T1 sequence (P63059 1-410 isoform P63059-2): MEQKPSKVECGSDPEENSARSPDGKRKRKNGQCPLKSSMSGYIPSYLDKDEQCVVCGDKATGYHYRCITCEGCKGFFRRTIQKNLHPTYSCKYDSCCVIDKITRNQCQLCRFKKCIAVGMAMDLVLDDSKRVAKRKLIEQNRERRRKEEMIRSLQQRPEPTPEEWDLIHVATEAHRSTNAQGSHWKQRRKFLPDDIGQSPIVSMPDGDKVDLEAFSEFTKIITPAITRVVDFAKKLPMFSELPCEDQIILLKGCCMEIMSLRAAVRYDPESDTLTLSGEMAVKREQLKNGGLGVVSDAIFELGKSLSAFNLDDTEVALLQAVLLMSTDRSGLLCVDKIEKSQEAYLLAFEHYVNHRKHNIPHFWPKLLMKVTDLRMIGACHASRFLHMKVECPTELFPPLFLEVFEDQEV
# Text: In vitro translation and thyroid hormone binding of rTR alpha FIG. 69 rTR alpha was transcribed in vitro and translated in a rabbit reticulocyte lysate. […] Lane 1, no added RNA; lane 2, rbeA12, which contains the entire 5′ untranslated region; lane 3, rbeA12B, which contains only 97 bp of 5′ untranslated sequence. […] Samples from rbeA12B programmed lysates were mixed with increasing concentrations of unlabeled thyroid hormone or analogs to compete with labeled hormone. […] In vitro transcription and translation and hormone binding were performed as described (22, 23).
# 23. For in vitro transcription, the entire EcoRI insert of rbeA12 was cloned into pGEM1 (Promega Biotec). […] For thyroid hormone binding, transcriptions were performed with SP6 polymerase and 5 to 10 micrograms of rbeA12B linearized with SstI. […] Thyroid hormone binding for both the Scatchard and competition analyses were determined in the same manner, except that unlabeled protein was used for the Scatchard analysis. […] Specific hormone binding was determined by adding a 1000-fold excess of unlabeled hormone and assayed by counting radioactivity eluting in the excluded volume from a Sephadex G-25 fine (Pharmacia) 0.9-by 4.0-cm. column.
# hMR = target: T2, hMR (Homo sapiens, UniProt P08235); assay: [^3H]aldosterone binding and steroid competition in extracts of pRShMR-transfected COS cells; design: expressed in transfected cells; host or cells: COS cells transfected with pRShMR (DEAE-dextran); conditions: 1-, 10-, or 100-fold molar excess of unlabeled steroid
# T2 sequence (P08235 1-984): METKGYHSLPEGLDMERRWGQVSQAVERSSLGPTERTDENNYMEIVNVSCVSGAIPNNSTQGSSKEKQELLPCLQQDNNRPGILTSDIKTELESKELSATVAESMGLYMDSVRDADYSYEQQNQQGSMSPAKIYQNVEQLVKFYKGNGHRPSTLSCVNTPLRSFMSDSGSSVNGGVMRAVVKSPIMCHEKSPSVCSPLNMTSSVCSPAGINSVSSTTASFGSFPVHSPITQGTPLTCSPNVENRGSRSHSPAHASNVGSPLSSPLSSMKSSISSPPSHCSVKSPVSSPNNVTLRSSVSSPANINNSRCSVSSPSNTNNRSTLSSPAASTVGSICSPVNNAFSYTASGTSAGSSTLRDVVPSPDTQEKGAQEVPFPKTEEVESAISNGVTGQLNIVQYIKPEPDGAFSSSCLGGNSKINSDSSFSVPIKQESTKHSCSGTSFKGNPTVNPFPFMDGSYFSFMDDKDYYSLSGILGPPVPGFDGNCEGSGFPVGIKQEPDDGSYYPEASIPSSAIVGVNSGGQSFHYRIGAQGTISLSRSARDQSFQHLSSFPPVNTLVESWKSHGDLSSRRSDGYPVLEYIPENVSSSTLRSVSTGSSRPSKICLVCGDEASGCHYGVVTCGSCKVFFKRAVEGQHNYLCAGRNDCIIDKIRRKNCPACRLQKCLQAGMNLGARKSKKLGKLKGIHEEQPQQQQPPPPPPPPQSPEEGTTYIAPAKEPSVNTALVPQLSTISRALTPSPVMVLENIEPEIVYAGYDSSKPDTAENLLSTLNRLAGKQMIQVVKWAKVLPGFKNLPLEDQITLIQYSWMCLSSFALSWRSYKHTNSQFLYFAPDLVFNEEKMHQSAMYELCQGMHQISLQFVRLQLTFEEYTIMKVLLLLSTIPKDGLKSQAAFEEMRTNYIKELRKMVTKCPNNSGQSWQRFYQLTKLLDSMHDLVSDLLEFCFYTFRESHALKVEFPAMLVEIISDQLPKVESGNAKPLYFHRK
# Method: Ligand specificity of the hMR protein was determined by preparing cytosol extracts from COS cells transfected with pRShMR. Two days after transfection, cells were harvested, and hormone binding was measured by a dextran-treated charcoal assay. […] This provided a measure of the relative affinity of each of these steroids for hMR.
# Steroid-binding properties of expressed hMR. FIG. 38 Structure of pRShMR, the hMR expression plasmid (41). […] Each point was assayed in triplicate with 100 micrograms of extract protein in a 200-microliter incubation at 0° C. for 2.5 hours. […] The results of two independent trials representative of these competition experiments are shown. Cold competitor was present in 1-, 10-, or 100-fold molar excess. […] Subconfluent COS cells were transfected by the DEAE-dextran method (42) with 10 micrograms of pRShMR per dish. Cells were maintained for 2 days in DMEM (Dulbecco's modification of Eagle's minimum essential medium) with 5 percent charcoal-treated fetal calf serum, then harvested in […] tris-HCl. (pH 7.8), 10 nM NaCl, 1 mM EDTA, 10 mM Na2MoO4, 5 mM dithiothreitol, antipain (5 microgram/ml), leupeptin (5 microgram/ml), and 500 microM phenylmethylsulfonyl fluoride. After centrifugation at 15,000×g for 10 minutes, extracts were adjusted to 100 mM NaCl and 5 percent glycerol before binding. […] After centrifugation at 15,000×g for 2 minutes at 40C, tritium in supernatant was quantified by liquid scintillation spectrophotometry.
# GR = target: T3, GR (Homo sapiens, UniProt P04150); assay: hGR functional assay: CAT activity in CV-1 cells cotransfected with pRShGR alpha (or mutant) and pMTVCAT; assay type: cell-based; design: The expression vector linking the RSV LTR to full length hGR cDNA (pRShGR alpha) was designed to obtain high levels of expression; expressed in transfected cells; host or cells: CV-1 monkey kidney cells, cotransfected with pMTVCAT; conditions: 100 nM steroid, cotransfected CV-1 cells
# T3 sequence (P04150 1-777): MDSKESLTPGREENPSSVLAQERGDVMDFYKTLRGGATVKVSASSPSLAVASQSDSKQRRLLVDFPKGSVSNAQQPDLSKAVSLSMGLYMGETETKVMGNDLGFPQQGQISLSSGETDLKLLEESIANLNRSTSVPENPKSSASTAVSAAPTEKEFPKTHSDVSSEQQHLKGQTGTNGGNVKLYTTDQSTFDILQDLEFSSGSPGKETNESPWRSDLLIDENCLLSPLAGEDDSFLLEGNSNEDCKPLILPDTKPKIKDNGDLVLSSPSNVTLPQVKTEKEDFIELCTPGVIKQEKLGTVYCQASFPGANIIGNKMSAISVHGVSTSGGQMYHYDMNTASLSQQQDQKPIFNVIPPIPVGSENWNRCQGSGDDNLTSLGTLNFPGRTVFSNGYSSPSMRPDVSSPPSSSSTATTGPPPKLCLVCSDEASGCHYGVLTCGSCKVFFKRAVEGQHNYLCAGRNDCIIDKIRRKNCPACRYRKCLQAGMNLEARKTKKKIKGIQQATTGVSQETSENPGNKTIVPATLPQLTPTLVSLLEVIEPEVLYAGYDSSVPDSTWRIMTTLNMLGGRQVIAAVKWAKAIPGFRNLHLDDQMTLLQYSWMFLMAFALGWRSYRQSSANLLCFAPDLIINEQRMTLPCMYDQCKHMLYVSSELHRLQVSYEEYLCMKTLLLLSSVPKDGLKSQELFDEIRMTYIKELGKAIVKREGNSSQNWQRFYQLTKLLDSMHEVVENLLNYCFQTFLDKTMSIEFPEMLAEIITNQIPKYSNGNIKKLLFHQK
# Text: The assay system and strategy used to study the expression of functional hGR from the cloned cDNA (See Experimental Section I) is shown in FIG. 11. In these experiments, a glucocorticoid-responsive promoter/enhancer element linked to a reporter gene was introduced into a receptor-negative cell. […] For our assay, we chose to use the MTV LTR fused to the sequence coding for chloramphenicol acetyltransferase (CAT) (EC2.3.1.28). […] Cotransfection of pMTVCAT (or pGMCAT) with a receptor expression plasmid provides functional receptors that allow induction of CAT activity upon treatment of the transfected cells with glucocorticoid hormone. In addition, biochemical studies such as steroid binding activity and Western blot analysis of the expressed receptors can be performed simultaneously.
# The cells are then cultured in the presence or absence of hormone. CV-1 cells were used to monitor induction of CAT activity, and COS cells were used to measure steroid-binding capacity and the expression of hGR protein.
# CAT assays were performed as indicated in Experimental Procedures (See Section II. F.). C, chloramphenicol; AC, 3-acetylchloramphenicol.
# The levels of CAT activity were plotted as percentages of the maximal response observe in a particular experiment.
# Each plasmid preparation used for transfection was purified using two consecutive CsCl-EtBr equilibrium gradients. […]
SMILES,relative affinity for hMR by competition with 5 nM [^3H]aldosterone (in words) (hMR),competition for T3 binding to rTR alpha by excess compound (rTR alpha),other results
N[C@@H](Cc1cc(I)c(Oc2cc(I)c(O)c(I)c2)c(I)c1)C(=O)O [L-thyroxine],–,–,competition for ^125I-T3 binding to rTR alpha (in words) (rTR alpha; in vitro translated rTR alpha): same characteristic affinities
C[C@]12C[C@H](O)[C@H]3[C@@H](CCC4=CC(=O)CC[C@@]43C)[C@@H]1CC[C@@H]2C(=O)CO [corticosterone],very similar affinities; also recorded: compete as effectively as aldosterone itself,–,–
C[C@]12CC[C@H]3[C@@H](CCC4=CC(=O)CC[C@@]43C)[C@@H]1CC[C@@H]2C(=O)CO [deoxycorticosterone],very similar affinities; also recorded: compete as effectively as aldosterone itself,–,–
CC(=O)[C@H]1CC[C@H]2[C@@H]3CCC4=CC(=O)CC[C@]4(C)[C@H]3CC[C@]12C [progesterone],–,no competition,–
C=C1CC[C@H](O)C/C1=C/C=C1\CCC[C@]2(C)[C@@H]([C@H](C)CCCC(C)C)CC[C@@H]12 [vitamin D3],–,no competition,–
C[C@]12CC[C@H]3[C@@H](CCC4=CC(=O)CC[C@@]43C)[C@@H]1CC[C@@H]2O [testosterone],–,no competition,induction of CAT activity by steroid (GR): failed to induce CAT activity
CC(=O)S[C@@H]1CC2=CC(=O)CC[C@]2(C)[C@H]2CC[C@@]3(C)[C@@H](CC[C@@]34CCC(=O)O4)[C@H]12 [spironolactone],weaker binding affinity,–,–
